Test results published in patent US12617762B2, “Carboxy derivatives with antiinflamatory properties” (Sitryx Therapeutics Limited, priority 2019, dated 2026).
Where two headings read alike, the source gives them in different places.

Assays:
[1] = test system: IL-1β cytokine output from THP-1s; assay: THP-1 AlphaLISA IL-1β cytokine inhibition assay; type: cell-based; conditions: for IC50: Homo sapiens; for IL-1β lowering, result in words: THP-1 IL-1β assay
Outline: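 THP-1 cells differentiated with PMA for 72 h, pre-incubated with compound 30 min, then LPS-primed 24 h and Nigericin-stimulated 1 h (37° C./5% CO2). Supernatant IL-1β measured by AlphaLISA; percentage inhibition normalised to +LPS (high) and −LPS (low) plate controls.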

[2] = test system: NRF2 (nuclear factor erythroid 2-related factor 2); assay: NRF2 +/-GSH activation assay (DiscoverX PathHunter NRF2 translocation kit, U2OS cells); type: cell-based
Procedure: Measuring Compound Activation Effects on the Anti-Inflammatory Transcription Factor NRF2 in DiscoverX PathHunter NRF2 Translocation Kit
Potency and efficacy of compounds of formula (I) against the target of interest to activate NRF2 (nuclear factor erythroid 2-related factor 2) were determined using the PathHunter NRF2 translocation kit (DiscoverX). The NRF2 translocation assay was run using an engineered recombinant cell line, utilising enzyme fragment complementation to determine activation of the Keap1-NRF2 protein complex and subsequent translocation of NRF2 into the nucleus. Enzyme activity was quantified using a chemiluminescent substrate consumed following the formation of a functional enzyme upon PK-tagged NRF2 translocation into the nucleus.
The assay was run under both +/−GSH (glutathione) conditions to determine the sensitivity of the compounds' NRF2-activating abilities to attenuation by GSH.
Additionally, a defined concentration of DMF was used as the ‘High’ control to normalise test compound activation responses to.
U2OS PathHunter eXpress cells were thawed from frozen prior to plating. Following plating, U2OS cells were incubated for 24 hrs (37° C./5% CO2) in commercial kit provided cell medium.
Following 24 hrs of U2OS incubation, cells were directly treated with an appropriate final concentration of compound, for −GSH conditions or, for +GSH conditions, an intermediate plate containing 6× working concentrations of compound stocks was prepared in a 6 mM working concentration of GSH solution (solubilised in sterile PBS). Following a 30 minute compound-GSH pre-incubation (37° C./5% CO2) for +GSH treatment, plated U2OS cells were incubated with an appropriate final concentration of compound and GSH.
Following compound (+/−GSH) treatment, the U2OS plates were incubated for a further 6 hours (37° C./5% CO2) before detection reagent from the PathHunter NRF2 commercial kit was prepared and added to test plates according to the manufacturer's instructions. Subsequently, the luminescence signal detection was measured in a microplate reader (PHERAstar®, BMG Labtech).
Percentage activation was calculated by normalising the sample data to the high and low controls used within each plate (+/−DMF).

[3] = Hepatocyte stability assay, mouse; type: in vitro ADME; conditions: mouse, hepatocytes; for hepatocyte CLint at 10 μM: Hepatocyte stability Clint; for half-life at 10 μM: Hepatocyte stability T½
Excerpt: (§1) Defrosted cryo-preserved hepatocytes (viability >70%) were used to determine the metabolic stability of a compound via calculation of intrinsic clearance (CIint; a measure of the removal of a compound from the liver in the absence of blood flow and cell binding). Clearance data are particularly important for in vitro work as they can be used in combination with in vivo data to predict the half-life and oral bioavailability of a drug.
(§2) The metabolic stability in hepatocytes assay involves a time-dependent reaction using both positive and negative controls. The cells were pre-incubated at 37° C. then spiked with test compound (and positive control); samples were taken at pre-determined time intervals and were analysed to monitor the change in concentration of the initial drug compound over 60 minutes. A buffer incubation reaction (with no hepatocytes present) acted as a negative control and two cocktail solutions, containing compounds with known high and low clearance values (verapamil/7-hydroxycoumarin and propranolol/diltiazem), acted as positive controls. • 1. The assay was run with a cell concentration of 0.5×10^6 cells/mL in Leibovitz buffer. • 2. All compounds and controls were run in duplicate. • 3. Compound concentration was 10 μM. • 4. All compounds and controls were incubated with both cells and buffer to show turnover was due to hepatic metabolism. • 5. All wells on the incubation plate had 326.7 μL of either cells or buffer added. • 6. Prior to assay, cell and buffer-only incubation plates were preincubated for 10 mins at 37° C. • 7. The assay was initiated by adding compounds, 3.3 μL of 1 mM in 10% DMSO—90% Buffer; final DMSO concentration was 0.1%. • 8. Samples were taken at regular timepoints (0, 5, 10, 20, 40, 60 min) until 60 mins. • 9. Sample volume was 40 μL and was added to 160 μL of crash solvent (acetonitrile with internal standard) and stored on ice. • 10. At the end of the assay, the crash plates were centrifuged at 3500 rpm for 20 mins at 4° C. • 11. 80 μL of clear supernatant was removed and mixed with 80 μL of deionised water before being analysed by LC-MS/MS.
(§3) Raw LC-MS/MS data was exported to, and analysed in, Microsoft Excel for determination of intrinsic clearance. The percentage remaining of a compound was monitored using the peak area of the initial concentration as 100%. Intrinsic clearance and half-life values were calculated using a graph of the natural log of percentage remaining versus the time of reaction in minutes.

[4] = Hepatocyte stability assay, human; type: in vitro ADME; conditions: human, hepatocytes; for hepatocyte CLint at 10 μM: Hepatocyte stability Clint; for half-life at 10 μM: Hepatocyte stability T½
Excerpt: as §1, §2, §3

[5] = THP-1, differentiated THP-1 cells, LPS then nigericin
[6] = +GSH, 30 minute compound-GSH pre-incubation, read-out: NRF2 activation +GSH EC50
[7] = +GSH, normalised to DMF high control
[8] = −GSH, U2OS PathHunter cells, 6 hours compound treatment, read-out: NRF2 activation −GSH EC50
[9] = −GSH, normalised to DMF high control

Structure (SMILES) | IC50 [1, 5] [µM] | EC50 [2, 6] [µM] | NRF2 activation +GSH Emax [2, 7] [%] | EC50 [2, 8] [µM] | NRF2 activation −GSH Emax [2, 9] [%] | hepatocyte CLint at 10 μM [3] [µL/min/1e6 cells] | half-life at 10 μM [3] [min] | hepatocyte CLint at 10 μM [4] [µL/min/1e6 cells] | half-life at 10 μM [4] [min] | IL-1β lowering, result in words [1] | IC50 ([1]; THP-1, Table 3, head to head comparison of exo vs endo double bond compounds) [µM] | EC50 ([2]; −GSH, Table 5 exo vs endo comparison, read-out: −GSH EC50) [µM] | −GSH Emax ([2]; −GSH, normalised to DMF high control, Table 5 exo vs endo comparison) [%]
C=C(Cc1nc(-c2ccc(CCCC)cc2)no1)C(=O)O [Example 18, 2-((3-(4-butylphenyl)-1,2,4-oxadiazol-5-yl)methyl)acrylic acid] | 15.3 | 3.8 | 159 | 3.5 | 207 | > 460 | < 3 | 159 | 11 | – | – | – | –
C=C(Cc1nc(C(C)(C)CCCCC)no1)C(=O)O [Example 12, 2-((3-(2-methylheptan-2-yl)-1,2,4-oxadiazol-5-yl)methyl)acrylic acid] | > 100 | 61.9 | 73 | 53.1 | 85 | 15 | 90 | 16 | 90 | not effective | – | – | –
C=C(Cc1nc(C2(c3ccc(OC)cc3)CC2)no1)C(=O)O [Example 45, 2-((3-(1-(4-methoxyphenyl)cyclopropyl)-1,2,4-oxadiazol-5-yl)methyl)acrylic acid] | 38.8 | > 100 | 9 | > 100 | 55 | 33 | 49 | 8 | 178 | – | – | – | –
[2H]C([2H])([2H])C([2H])([2H])C([2H])([2H])C([2H])([2H])C([2H])([2H])C([2H])([2H])C([2H])([2H])C([2H])([2H])c1noc(CC(=C)C(=O)O)n1 [Example 34, 2-((3-(octyl-d17)-1,2,4-oxadiazol-5-yl)methyl)acrylic acid] | 9.5 | 4.7 | 167 | 3.7 | 222 | 374 | 4 | 78 | 18 | – | – | – | –
C=C(Cc1nnc(CCCCCCCC)o1)C(=O)O [Example 2, 2-((5-octyl-1,3,4-oxadiazol-2-yl)methyl)acrylic acid] | 36.8 | 26.8 | 169 | 19.1 | 176 | 74 | 19 | 95 | 15 | – | – | – | –
C=C(Cc1nc(Cc2ccc(Cl)c(Cl)c2)no1)C(=O)O [Example 14, 2-((3-(3,4-dichlorobenzyl)-1,2,4-oxadiazol-5-yl)methyl)acrylic acid] | > 100 | 52.2 | 46 | 21.8 | 78 | 18 | 72 | 6 | 240 | not effective | – | – | –
CCCCOc1ccc(-c2noc(/C=C(\C)C(=O)O)n2)cc1 [Example 167] | > 100 | > 100 | 15 | > 100 | 100 | 331 | 6 | 35 | 35 | – | > 100 | > 100 | 100
